US11141413B2, “Method of treating renal cell carcinoma using N-(4-(6,7-dimethoxyquinolin-4-yloxy)phenyl)-N′-(4-fluorophenyl)cyclopropane-1,1-dicarboxamide, (2S)-hydroxybutanedioate” (Exelixis, Inc., priority 2016, dated 2021)
Blank lines part the entries; values can stand above or below the compound they belong to.

Tests used:
[1] = tested on: metastatic renal cell carcinoma (mRCC); assay: CABOSUN (ALLIANCE A031203) trial, cabozantinib vs sunitinib as initial targeted therapy
Protocol: Pts were randomized 1:1 to receive Cabo (60 mg QD) or Sun (50 mg QD, 4 weeks on/2 weeks off). Pts were stratified by the IMDC risk groups (intermediate vs. poor risk) and bone metastasis (yes, no). […] Secondary endpoints included OS, investigator-assessed overall response rate (ORR), and toxicity. The Kaplan-Meier product-limit estimator was used to estimate the OS between treatment arms.

[2] = Solubility in aqueous media; assay type: physicochemical
[3] = tested on: advanced renal cell carcinoma; conditions: nivolumab study; cited from earlier work

Diarrhea, grade 3 or 4 ([1]; human, in vivo): I1%
Fatigue, grade 3 or 4 ([1]; human, in vivo): 15%
Hypertension, grade 3 or 4 ([1]; human, in vivo): 22%
Palmar-plantar erythrodysesthesia, grade 3 or 4 ([1]; human, in vivo): 4%
Compound: CCN(CC)CCNC(=O)c1c(C)[nH]c(/C=C2\C(=O)Nc3ccc(F)cc32)c1C [sunitinib, reference compound]
All-causality grade 3 or 4 adverse events ([1]; human, in vivo): 68%
Hematologic adverse events, grade 3 or 4 ([1]; human, in vivo): 22%
Median OS ([1]; in vivo): 21.8 months
ORR ([1]; in vivo): 18%
Median PFS ([1]; untreated mRCC, intermediate or poor risk): 5.6 months

Compound: COc1cc2nccc(Oc3ccc(NC(=O)C4(C(=O)Nc5ccc(F)cc5)CC4)cc3)c2cc1OC.O=C(O)C[C@H](O)C(=O)O [Cabozantinib (S)-malate salt, N-(4-(6,7-dimethoxyquinolin-4-yloxy)phenyl)-N′-(4-fluorophenyl)cyclopropane-1,1-dicarboxamide, (2S)-hydroxybutanedioate]
Solubility in aqueous media [2]: practically insoluble in aqueous media

Compound: nivolumab
Hazard ratio for death vs everolimus [3]: 0.73
